{"source": "PubChem BioAssay (NCI)", "assay_in_all_cases": "DTP human tumour cell line panel, 48 h", "key": {"[1]": {"test_system": "MCF7 breast"}, "[2]": {"test_system": "SK-OV-3 ovarian"}, "[3]": {"test_system": "NCI-H522 lung"}, "[4]": {"test_system": "RPMI-8226 leukemia"}, "[5]": {"test_system": "MALME-3M melanoma"}, "[6]": {"test_system": "MDA-MB-435"}, "[7]": {"test_system": "RXF 393 renal"}, "[8]": {"test_system": "SF-539 CNS"}, "[9]": {"test_system": "SF-268 CNS"}, "[10]": {"test_system": "CAKI-1 renal"}}, "note": "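Following 48 hours of exposure in 96-well plates, responses at five concentrations were used to interpolate endpoints linearly. GI50 is the concentration that inhibits growth by half. Definition used: TGI = concentration required for complete inhibition of growth.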", "data": [{"smiles": "O=[N+]([O-])c1cccc(-c2nc3sccn3c2-c2ccnc(NCCCNS(=O)(=O)c3cccc(F)c3)n2)c1", "values": [{"measurement": "GI50", "setting": "[1]", "result": 2.16, "unit": "µM"}, {"measurement": "TGI", "setting": "[1]", "result": 8.48, "unit": "µM"}, {"measurement": "GI50", "setting": "[2]", "result": 5.82, "unit": "µM"}, {"measurement": "TGI", "setting": "[2]", "result": 30.5, "unit": "µM"}, {"measurement": "GI50", "setting": "[3]", "result": 2.02, "unit": "µM"}, {"measurement": "TGI", "setting": "[3]", "result": 7.97, "unit": "µM"}, {"measurement": "GI50", "setting": "[4]", "result": 0.984, "unit": "µM"}, {"measurement": "TGI", "setting": "[4]", "result": 4.18, "unit": "µM"}, {"measurement": "GI50", "setting": "[5]", "result": 2.14, "unit": "µM"}, {"measurement": "TGI", "setting": "[5]", "result": 7.06, "unit": "µM"}, {"measurement": "GI50", "setting": "[6]", "result": 2.98, "unit": "µM"}, {"measurement": "TGI", "setting": "[6]", "result": 11.6, "unit": "µM"}, {"measurement": "GI50", "setting": "[7]", "result": 8.13, "unit": "µM"}, {"measurement": "TGI", "setting": "[7]", "result": 41.6, "unit": "µM"}, {"measurement": "GI50", "setting": "[8]", "result": 4.04, "unit": "µM"}, {"measurement": "TGI", "setting": "[8]", "result": 20.8, "unit": "µM"}, {"measurement": "GI50", "setting": "[9]", "result": 3.21, "unit": "µM"}, {"measurement": "TGI", "setting": "[9]", "result": 21.9, "unit": "µM"}, {"measurement": "GI50", "setting": "[10]", "result": 2.33, "unit": "µM"}, {"measurement": "TGI", "setting": "[10]", "result": 14.1, "unit": "µM"}]}, {"smiles": "COc1cccc(C=Nc2cc(C)ccn2)c1O.COc1cccc(C=Nc2cc(C)ccn2)c1O.[Cu]", "values": [{"measurement": "GI50", "setting": "[1]", "result": 19.7, "unit": "µM"}, {"measurement": "TGI", "setting": "[1]", "result": 62.8, "unit": "µM"}, {"measurement": "GI50", "setting": "[2]", "result": 13.6, "unit": "µM"}, {"measurement": "TGI", "setting": "[2]", "result": 28.1, "unit": "µM"}, {"measurement": "GI50", "setting": "[3]", "result": 22.3, "unit": "µM"}, {"measurement": "TGI", "setting": "[3]", "result": 52.3, "unit": "µM"}, {"measurement": "GI50", "setting": "[4]", "result": 17.6, "unit": "µM"}, {"measurement": "TGI", "setting": "[4]", "result": "> 100", "unit": "µM"}, {"measurement": "GI50", "setting": "[5]", "result": 16.6, "unit": "µM"}, {"measurement": "TGI", "setting": "[5]", "result": 31.7, "unit": "µM"}, {"measurement": "GI50", "setting": "[6]", "result": 13.6, "unit": "µM"}, {"measurement": "TGI", "setting": "[6]", "result": 45.9, "unit": "µM"}, {"measurement": "GI50", "setting": "[7]", "result": 11.9, "unit": "µM"}, {"measurement": "TGI", "setting": "[7]", "result": 34.8, "unit": "µM"}, {"measurement": "GI50", "setting": "[8]", "result": 17, "unit": "µM"}, {"measurement": "TGI", "setting": "[8]", "result": 42.9, "unit": "µM"}, {"measurement": "GI50", "setting": "[9]", "result": 14.6, "unit": "µM"}, {"measurement": "TGI", "setting": "[9]", "result": 42.2, "unit": "µM"}, {"measurement": "GI50", "setting": "[10]", "result": 20.5, "unit": "µM"}, {"measurement": "TGI", "setting": "[10]", "result": 46, "unit": "µM"}]}, {"smiles": "CC(C)(C)c1ccc(OCCCCCCN2CCNCC2)cc1", "values": [{"measurement": "GI50", "setting": "[1]", "result": 3.03, "unit": "µM"}, {"measurement": "TGI", "setting": "[1]", "result": 10.3, "unit": "µM"}, {"measurement": "GI50", "setting": "[2]", "result": 10.9, "unit": "µM"}, {"measurement": "TGI", "setting": "[2]", "result": 24.7, "unit": "µM"}, {"measurement": "GI50", "setting": "[3]", "result": 13.6, "unit": "µM"}, {"measurement": "TGI", "setting": "[3]", "result": 31.7, "unit": "µM"}, {"measurement": "GI50", "setting": "[4]", "result": 2.5, "unit": "µM"}, {"measurement": "TGI", "setting": "[4]", "result": 6.46, "unit": "µM"}, {"measurement": "GI50", "setting": "[5]", "result": 3.27, "unit": "µM"}, {"measurement": "TGI", "setting": "[5]", "result": 13.1, "unit": "µM"}, {"measurement": "GI50", "setting": "[6]", "result": 3.17, "unit": "µM"}, {"measurement": "TGI", "setting": "[6]", "result": 11.9, "unit": "µM"}, {"measurement": "GI50", "setting": "[7]", "result": 1.91, "unit": "µM"}, {"measurement": "TGI", "setting": "[7]", "result": 4.12, "unit": "µM"}, {"measurement": "GI50", "setting": "[8]", "result": 5.98, "unit": "µM"}, {"measurement": "TGI", "setting": "[8]", "result": 20.6, "unit": "µM"}, {"measurement": "GI50", "setting": "[9]", "result": 10.7, "unit": "µM"}, {"measurement": "TGI", "setting": "[9]", "result": 24.4, "unit": "µM"}, {"measurement": "GI50", "setting": "[10]", "result": 4.72, "unit": "µM"}, {"measurement": "TGI", "setting": "[10]", "result": 17, "unit": "µM"}]}, {"smiles": "N=C(N)c1ccc(N2CCCN(c3ccc(C(=N)N)cc3)CC2)cc1", "values": [{"measurement": "GI50", "setting": "[1]", "result": 52.3, "unit": "µM"}, {"measurement": "TGI", "setting": "[1]", "result": "> 100", "unit": "µM"}, {"measurement": "GI50", "setting": "[2]", "result": "> 100", "unit": "µM"}, {"measurement": "TGI", "setting": "[2]", "result": "> 100", "unit": "µM"}, {"measurement": "GI50", "setting": "[3]", "result": 81.9, "unit": "µM"}, {"measurement": "TGI", "setting": "[3]", "result": "> 100", "unit": "µM"}, {"measurement": "GI50", "setting": "[4]", "result": "> 100", "unit": "µM"}, {"measurement": "TGI", "setting": "[4]", "result": "> 100", "unit": "µM"}, {"measurement": "GI50", "setting": "[5]", "result": 39.6, "unit": "µM"}, {"measurement": "TGI", "setting": "[5]", "result": "> 100", "unit": "µM"}, {"measurement": "GI50", "setting": "[6]", "result": "> 100", "unit": "µM"}, {"measurement": "TGI", "setting": "[6]", "result": "> 100", "unit": "µM"}, {"measurement": "GI50", "setting": "[7]", "result": 98.2, "unit": "µM"}, {"measurement": "TGI", "setting": "[7]", "result": "> 100", "unit": "µM"}, {"measurement": "GI50", "setting": "[8]", "result": 41.5, "unit": "µM"}, {"measurement": "TGI", "setting": "[8]", "result": "> 100", "unit": "µM"}, {"measurement": "GI50", "setting": "[9]", "result": 57.7, "unit": "µM"}, {"measurement": "TGI", "setting": "[9]", "result": "> 100", "unit": "µM"}, {"measurement": "GI50", "setting": "[10]", "result": 99.7, "unit": "µM"}, {"measurement": "TGI", "setting": "[10]", "result": "> 100", "unit": "µM"}]}, {"smiles": "O=C1c2ccccc2-c2c1c1ccc([N+](=O)[O-])cc1c(=O)n2CCCBr", "values": [{"measurement": "GI50", "setting": "[1]", "result": 0.153, "unit": "µM"}, {"measurement": "TGI", "setting": "[1]", "result": "> 100", "unit": "µM"}, {"measurement": "GI50", "setting": "[2]", "result": "> 100", "unit": "µM"}, {"measurement": "TGI", "setting": "[2]", "result": "> 100", "unit": "µM"}, {"measurement": "GI50", "setting": "[3]", "result": 96.8, "unit": "µM"}, {"measurement": "TGI", "setting": "[3]", "result": "> 100", "unit": "µM"}, {"measurement": "GI50", "setting": "[4]", "result": 36, "unit": "µM"}, {"measurement": "TGI", "setting": "[4]", "result": "> 100", "unit": "µM"}, {"measurement": "GI50", "setting": "[5]", "result": "> 100", "unit": "µM"}, {"measurement": "TGI", "setting": "[5]", "result": "> 100", "unit": "µM"}, {"measurement": "GI50", "setting": "[6]", "result": "> 100", "unit": "µM"}, {"measurement": "TGI", "setting": "[6]", "result": "> 100", "unit": "µM"}, {"measurement": "GI50", "setting": "[7]", "result": "> 100", "unit": "µM"}, {"measurement": "TGI", "setting": "[7]", "result": "> 100", "unit": "µM"}, {"measurement": "GI50", "setting": "[8]", "result": "> 100", "unit": "µM"}, {"measurement": "TGI", "setting": "[8]", "result": "> 100", "unit": "µM"}, {"measurement": "GI50", "setting": "[9]", "result": "> 100", "unit": "µM"}, {"measurement": "TGI", "setting": "[9]", "result": "> 100", "unit": "µM"}, {"measurement": "GI50", "setting": "[10]", "result": 3.23, "unit": "µM"}, {"measurement": "TGI", "setting": "[10]", "result": "> 100", "unit": "µM"}]}, {"smiles": "CC(C)(C)c1n[nH]c(=S)n(/N=C/c2ccc(F)c(Oc3ccccc3)c2)c1=O", "values": [{"measurement": "GI50", "setting": "[1]", "result": 40.5, "unit": "µM"}, {"measurement": "TGI", "setting": "[1]", "result": "> 100", "unit": "µM"}, {"measurement": "GI50", "setting": "[2]", "result": 38.2, "unit": "µM"}, {"measurement": "TGI", "setting": "[2]", "result": "> 100", "unit": "µM"}, {"measurement": "GI50", "setting": "[3]", "result": "> 100", "unit": "µM"}, {"measurement": "TGI", "setting": "[3]", "result": "> 100", "unit": "µM"}, {"measurement": "GI50", "setting": "[4]", "result": 32.5, "unit": "µM"}, {"measurement": "TGI", "setting": "[4]", "result": "> 100", "unit": "µM"}, {"measurement": "GI50", "setting": "[5]", "result": 28.5, "unit": "µM"}, {"measurement": "TGI", "setting": "[5]", "result": 91.5, "unit": "µM"}, {"measurement": "GI50", "setting": "[6]", "result": 38, "unit": "µM"}, {"measurement": "TGI", "setting": "[6]", "result": "> 100", "unit": "µM"}, {"measurement": "GI50", "setting": "[7]", "result": 38.2, "unit": "µM"}, {"measurement": "TGI", "setting": "[7]", "result": "> 100", "unit": "µM"}, {"measurement": "GI50", "setting": "[8]", "result": 43.7, "unit": "µM"}, {"measurement": "TGI", "setting": "[8]", "result": "> 100", "unit": "µM"}, {"measurement": "GI50", "setting": "[9]", "result": 35.9, "unit": "µM"}, {"measurement": "TGI", "setting": "[9]", "result": "> 100", "unit": "µM"}, {"measurement": "GI50", "setting": "[10]", "result": 28.5, "unit": "µM"}, {"measurement": "TGI", "setting": "[10]", "result": 68.9, "unit": "µM"}]}]}
